According to PMC12723449, “From Pharmacophore to Warhead: NAD^+‐Targeting Triazoles as Mechanism‐Based Sirtuin Inhibitors” (Angewandte Chemie (International Ed. in English), 2025):

Key:
SIRT2 [1] = molecular target: T1, SIRT2 (Homo sapiens, UniProt Q8IXJ6); test: Fluorescence-based deacetylation assay (ZMAL-assay), SIRT2; assay type: biochemical; settings: 37 °C, assay limit 0.10 µM, read-out: SIRT2 (deac.) IC50
T1 construct: For assay experiments, strep-tagged human SIRT1134−747 and SIRT256-356 were expressed and purified as previously; Strep-tag; made in house; host or cells: E. coli BL21 Star (DE3)
T1 sequence (Q8IXJ6 56-356 limits assumed): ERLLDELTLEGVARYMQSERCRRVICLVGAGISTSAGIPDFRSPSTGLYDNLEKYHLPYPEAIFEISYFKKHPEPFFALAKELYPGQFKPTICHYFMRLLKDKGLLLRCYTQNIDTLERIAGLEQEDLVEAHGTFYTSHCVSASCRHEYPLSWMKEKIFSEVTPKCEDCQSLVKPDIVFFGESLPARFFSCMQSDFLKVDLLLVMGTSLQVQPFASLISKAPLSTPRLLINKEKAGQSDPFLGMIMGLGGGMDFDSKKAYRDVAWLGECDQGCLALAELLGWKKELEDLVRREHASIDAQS
Procedure: Determination of IC50 values (SIRT1, SIRT2, SIRT3) via fluorescence-based deacetylation assay […]
The fluorescence-based deacetylation assay was conducted in a black 384-well microplate (OptiPlate-384 F, PerkinElmer) with a total volume of 30 µL per well and a final DMSO concentration of 2% (v/v) according to a […]
concentration of 100 nM) in assay buffer (50 mM Tris, 137 mM NaCl, 2.7 mM KCl, 1m MgCl2, 0.01% Tween, 0.05 mg/mL BSA, 0.2 mM TCEP, pH 8.0), 5 µL of substrate (ZMAL, final concentration of 10.5 µM), 5 µL of NAD+ (final concentration of 500 µM) and 10 µL of inhibitor solution (final concentration of 30 µM – 0.014 µM, serial 1:3 dilutions) was incubated at 37 °C and 300 rpm for 4 h. A solution of trypsin (final concentration of 0.5 mg/mL) and nicotinamide (final concentration of 4 mM) was added and incubated at 37 °C and 300 rpm for 30 min to stop the reaction. Samples with 2% (v/v) DMSO instead of inhibitor were prepared as a positive control, and samples with 2% (v/v) DMSO instead of SIRT enzyme were prepared as a negative control. Fluorescence intensity was measured with a microplate reader (λEx = 380-10 nm, λEm = 460 nm, BMG POLARstar Optima, BMG Labtech, Germany). IC50 values were then determined using a nonlinear regression fit with Origin Pro 2019 software. All experiments were performed at least in duplicates. […]

SIRT2 [2] = molecular target: T1, SIRT2; test: CE-ESI-MS analysis of adducts formed in vitro; assay type: biochemical; settings: SIRT2 incubated with NAD+ and compound, thermal denaturation
Procedure: Capillary electrophoresis–electrospray ionization–mass spectrometry (CE-ESI-MS) analysis of […]
Analysis of the enzymatic products were performed using a capillary electrophoresis coupled to mass spectrometry method (CE-MS) described first in the separation of inositol (pyro)phosphates.[11] CE (Agilent 7100 CE system) was coupled to a time-of-flight mass spectrometry Agilent 6545 system and ionization was performed with a commercially available Agilent Jet Stream (AJS) electrospray ionization (ESI) source. An Agilent liquid coaxial interface was used and the ionization spray was stabilized with a water-isopropanol (1:1 v/v) mixture as sheath liquid. The sheath liquid was pumped with an Agilent 1200 isocratic LC pump, using a 1:100 splitter and resulting in a flow of 1.5 µl/min.
A mixture of SIRT256-356 (final concentration of 11 mg/mL) in SEC buffer, compound 1 or 7 (3.33 mM of inhibitor with a final DMSO concentration of 3.33 % (v/v)) and NAD+ (final concentration of 10 mM) were incubated for 90 min and centrifuged for 5 min to remove inhibitor precipitate. Following SIRT2 denaturation at 65 °C for 1 min and centrifugation for 5 min to remove precipitated protein, 20 nL of each sample was injected under 100 mbar pressure for 20 s. […] Analytes were detected in negative ionization mode, a capillary voltage of -3000 V and an ESI spray current of 2.1 µA. […]

SIRT2 [3] = molecular target: T1, SIRT2; test: Differential scanning fluorimetry (DSF) / fluorescence thermal shift assay; assay type: binding
Procedure: Differential scanning fluorimetry (DSF) assay
Differential scanning fluorimetry assays were performed in white 96-well plates (Hard-Shell PCR Plates, BioRad, USA) with a total volume of 20 µL per well and a final DMSO concentration of 5% (v/v), following a published
A solution of 10 µL SIRT2 (final concentration of 6.0 µM) and SYPRO Orange (5x, Sigma-Aldrich, Germany) in assay buffer (25 mM Tris-HCl, 150 mM NaCl, 1 mM DTT, pH 8.0) was mixed with 10 µL of compound and incubated at 25 °C and 350 rpm for 5 min. Where applicable, NAD+ was added to a final concentration of 2.5 mM. Fluorescence
(C1000 Touch™ Thermal Cycler, CFX96™ Real-Time System, BioRad, USA). Melting temperatures were determined using GraphPad Prism, following a published procedure.[6]

Row | Structure (SMILES) | IC50 (SIRT2 [1]) | ADPR adduct detected in solution by CE-ESI-MS (SIRT2 [2]) | ΔTm at 10 µM (SIRT2 [3]; 10 µM compound, with NAD+ addition) | NAD+-dependent thermal stabilization of SIRT2 (SIRT2 [3]; upon NAD+ addition)
1 | Cc1cc(C)nc(SCC(=O)Nc2ncc(Cc3cccc(OCc4c[nH]nn4)c3)s2)n1 [Compound 7] | 7.8 ± 2.1 µM | confirmed release of 7–ADPR |  | 
2 | CCCCCCCCCCCCc1cn(CCCC[C@H](NC(=O)[C@H](CCCCN)NC(=O)[C@@H]2CCCN2C(=O)[C@H](CC(C)C)NC(=O)[C@H](C)NC(=O)[C@H](CCC(=O)O)NC(C)=O)C(=O)N[C@H](C(=O)NCC(=O)NCC(N)=O)[C@@H](C)O)nn1 [Compound 6] | < 0.1 µM |  | 16.3 ± 0.1 °C | 
3 | COCCn1cc(COc2cccc(Cc3cnc(NC(=O)CSc4nc(C)cc(C)n4)s3)c2)nn1 [Compound 1, reference compound] |  | undetectable |  | pronounced NAD^+‐dependent thermal stabilization
